Assays:
Assay type in all cases: physicochemical
[1] = Physical stability; visual assessment (color, turbidity, phase separation); parameters: key: ++: no discernible change with respect to color, turbidity or phase separation; +: marginal change in color number, somewhat increased Tyndall effect but no turbidity; 0: easily discernible increase in color number and moderate turbidity−no phase separation; −: turbidity and change in color number readily discernible by visual assessment; −−: strong color change with strong turbidity and incipient phase separation
Description: Physical stability; visual assessment according to:
++=no discernible change with respect to color, turbidity or phase separation; +=marginal change in color number, somewhat increased Tyndall effect but no turbidity; 0=easily discernible increase in color number and moderate turbidity−no phase separation; − turbidity and change in color number readily discernible by visual assessment; −− strong color change with strong turbidity and incipient phase separation.
Before storage, all batches could be rated ++ (no turbidity or phase separation; no influence of the biocide on the color number of the product).

[2] = Iodine color number according to DIN 6162:2014-09
[3] = Analysis of active substance: preservative concentration before and after storage in VI-containing polymer solution; conditions: for active-substance concentration, 0 d, RT: before storage; for active-substance concentration, 14 d, 40° C.: storage 14 d at 40° C.; for active-substance concentration, 28 d, 40° C.: storage 28 d at 40° C.; for active-substance concentration, 60 d 40° C.: storage 60 d at 40° C.
Procedure: Stability of Preservatives in VI-Containing Polymers:
The following stabilizers for VI-containing polymers (here: aqueous solution of a copolymer of vinylpyrrolidone and vinylimidazole) were tested.
MIT, BIT, CMIT, OIT, DCOIT and iodopropynyl butyl carbamate were determined by RP chromatography with UV detection after dilution of the sample to be tested. An RP18 column was used for this purpose, with an eluent composed of an acid-methanol mixture under isocratic conditions.

[4] = Polymer P5 (HP56) with stabilizer

CCCCCCCCCC[N+](C)(C)CCCCCCCCCC.[Cl-] [DDAC, didecyldimethylammonium chloride]
Physical stability, 60 d 40° C.* ([1]; Polymer P1 with stabilizer): ++ | Physical stability, 60 d 40° C.* ([1]; Polymer P2 with stabilizer): ++ | Physical stability, 60 d 40° C.* ([1]; Polymer P3 with stabilizer): ++ | Physical stability, 60 d 40° C.* ([1]; Polymer P4 with stabilizer): ++ | Physical stability, 60 d 40° C.* [1, 4]: ++ | Physical stability, 60 d 40° C.* ([1]; Polymer P6 with stabilizer): ++ | Physical stability, 60 d 40° C.* ([1]; Polymer P7 with stabilizer): ++ | Physical stability, 60 d 40° C.* ([1]; Polymer P8 with stabilizer): ++ | Physical stability, 60 d 40° C.* ([1]; Polymer P9 with stabilizer): ++ | Iodine color number, 60 d 40° C. ([2]; Polymer P1 with stabilizer): 2.9 | Iodine color number, start ([2]; Polymer P1 with stabilizer): 2.9 | Iodine color number, 60 d 40° C. ([2]; Polymer P2 with stabilizer): 3.0 | Iodine color number, start ([2]; Polymer P2 with stabilizer): 2.9 | Iodine color number, 60 d 40° C. ([2]; Polymer P3 with stabilizer): 3.3 | Iodine color number, start ([2]; Polymer P3 with stabilizer): 3.3 | Iodine color number, 60 d 40° C. ([2]; Polymer P4 with stabilizer): 3.3 | Iodine color number, start ([2]; Polymer P4 with stabilizer): 3.3 | Iodine color number, 60 d 40° C. [2, 4]: 3.3 | Iodine color number, start [2, 4]: 3.3 | Iodine color number, 60 d 40° C. ([2]; Polymer P6 with stabilizer): 3.3 | Iodine color number, start ([2]; Polymer P6 with stabilizer): 3.3 | Iodine color number, 60 d 40° C. ([2]; Polymer P7 with stabilizer): 3.3 | Iodine color number, start ([2]; Polymer P7 with stabilizer): 3.3 | Iodine color number, 60 d 40° C. ([2]; Polymer P8 with stabilizer): 3.3 | Iodine color number, start ([2]; Polymer P8 with stabilizer): 3.3 | Iodine color number, 60 d 40° C. ([2]; Polymer P9 with stabilizer): 3.9 | Iodine color number, start ([2]; Polymer P9 with stabilizer): 3.8 | active-substance concentration, 0 d, RT ([3]; in Polymer P1): 950 ppm | active-substance concentration, 14 d, 40° C. ([3]; in Polymer P1): 950 ppm | active-substance concentration, 28 d, 40° C. ([3]; in Polymer P1): 940 ppm | active-substance concentration, 60 d 40° C. ([3]; in Polymer P1): 940 ppm | active-substance concentration, 0 d, RT ([3]; in Polymer P2): 950 ppm | active-substance concentration, 14 d, 40° C. ([3]; in Polymer P2): 950 ppm | active-substance concentration, 28 d, 40° C. ([3]; in Polymer P2): 940 ppm | active-substance concentration, 60 d 40° C. ([3]; in Polymer P2): 940 ppm | active-substance concentration, 0 d, RT ([3]; in Polymer P3): 950 ppm | active-substance concentration, 14 d, 40° C. ([3]; in Polymer P3): 950 ppm | active-substance concentration, 28 d, 40° C. ([3]; in Polymer P3): 940 ppm | active-substance concentration, 60 d 40° C. ([3]; in Polymer P3): 930 ppm | active-substance concentration, 0 d, RT ([3]; in Polymer P4): 950 ppm | active-substance concentration, 14 d, 40° C. ([3]; in Polymer P4): 950 ppm | active-substance concentration, 28 d, 40° C. ([3]; in Polymer P4): 942 ppm | active-substance concentration, 60 d 40° C. ([3]; in Polymer P4): 940 ppm | active-substance concentration, 0 d, RT ([3]; in Polymer P5 (HP56)): 950 ppm | active-substance concentration, 14 d, 40° C. ([3]; in Polymer P5 (HP56)): 950 ppm | active-substance concentration, 28 d, 40° C. ([3]; in Polymer P5 (HP56)): 940 ppm | active-substance concentration, 60 d 40° C. ([3]; in Polymer P5 (HP56)): 940 ppm | active-substance concentration, 0 d, RT ([3]; in Polymer P6): 950 ppm | active-substance concentration, 14 d, 40° C. ([3]; in Polymer P6): 950 ppm | active-substance concentration, 28 d, 40° C. ([3]; in Polymer P6): 950 ppm | active-substance concentration, 60 d 40° C. ([3]; in Polymer P6): 943 ppm | active-substance concentration, 0 d, RT ([3]; in Polymer P7): 950 ppm | active-substance concentration, 14 d, 40° C. ([3]; in Polymer P7): 947 ppm | active-substance concentration, 28 d, 40° C. ([3]; in Polymer P7): 945 ppm | active-substance concentration, 60 d 40° C. ([3]; in Polymer P7): 938 ppm | active-substance concentration, 0 d, RT ([3]; in Polymer P8): 950 ppm | active-substance concentration, 14 d, 40° C. ([3]; in Polymer P8): 950 ppm | active-substance concentration, 28 d, 40° C. ([3]; in Polymer P8): 940 ppm | active-substance concentration, 60 d 40° C. ([3]; in Polymer P8): 940 ppm | active-substance concentration, 0 d, RT ([3]; in Polymer P9): 950 ppm | active-substance concentration, 14 d, 40° C. ([3]; in Polymer P9): 950 ppm | active-substance concentration, 28 d, 40° C. ([3]; in Polymer P9): 944 ppm | active-substance concentration, 60 d 40° C. ([3]; in Polymer P9): 940 ppm

Source: patent publication US12281225B2, “Process for preparing stable polymers containing vinylimidazole” (BASF SE, priority 2018, dated 2025)
